Two compounds from US20250268980A1, “AN ANTICANCER THERAPY TARGETING RAS AND OTHER ONCOGENIC SIGNALS BY INHIBITION OF DYNAMIC BLEBBING AND/OR SEPTINS” (THE BOARD OF REGENTS OF THE UNIVERSITY OF TEXAS SYSTEM, priority 2022, published 2025) can be followed below.

Holding throughout (assay type): cell-based, human
One assay concerns PI3K. Briefly: PI3K activity with Akt-PH-GFP biosensor in MV3 cells. The settings on record: rounded, poorly-adhered MV3 cells. The protocol: (§1) Cells Embedded in 3D Collagen.
Cells Grown in VitroGel Coffins. VitroGel coffins were prepared by embedding MV3 or A375 cells in VitroGel 3D or RGD at 1:1 dilution according to manufacturer's instructions (TheWell Biosciences, sku #TWG001). […] A 1:1 solution of VitroGel and VitroGel Dilution Solution was made and added to cell suspension at a ratio of 4:1 (VitroGel: cells) using gentle pipetting until well-mixed (with care taken not to form bubbles). Cell/VitroGel solution was transferred to an 8-well uncoated ibidi μ-slide (ibidi cat #80821) at 100 μl/well, spread over the bottom of wells with a pipette tip, and allowed to polymerize at room temperature for 15 minutes. […]
Cortical septin levels were quantified by measuring the mean cytoplasmic intensity of each cell using hand-drawn ROIs that excluded nuclei (performed with the FIJI ImageJ package), and then calculating for each cell its fraction of cortical voxels (intracellular voxels within 0.96 μm of the u-Shape3D-derived surface) that were higher than that cell's mean cytoplasmic intensity (performed using a MATLAB script). […] To quantify PI3K biosensor fluorescence signal, cells were segmented with u-shape3D and the intracellular signal was summed across the z-axis to yield a sum projection image (performed with the FIJI ImageJ package). […]

A further assay relates to ERK. Briefly: ERK activity assay with ERK-nKTR-GFP biosensor in MV3 cells. The protocol: Detached/Adhered Cell Culture. […] Drug treatments, solvent-only controls, or CellEvent caspase activity sensor were added to suspensions if appropriate to the experiment, and then immediately transferred to both an uncoated (for detached cells) and ibiTreated (for adhered cells) 8-well ibidi u-slide (ibidi cat #80821 and 80826) at 200 μl/well. Both slides were stored at 37° C. and 5% CO2 for either 24 hours (hrs) for viability assays, 3 hrs for ERK activity assays or 4 hours for caspase activation assays. Uncoated slides (detached) were nutated at 20 rpm during this time. […]
Viability, ERK Activity, and Caspase ActivityCell Counting Assays. Viability, ERK activity, and caspase activity assays were analyzed using live-cell fluorescent and phase-contrast microscopy, performed on a Nikon Ti microscope equipped with an environmental chamber held at 37° C. and 5% CO2 at 20× magnification. […] Live and dead cells (as identified by significant cellular ethidium signal) were counted using the Cell Counter ImageJ plugin. For ERK activity assays, live cells carrying ERK-nKTR-GFP and H2B-mCherry were imaged after 3 hours of experimental conditions and high/low ERK activity cells were counted with Cell Counter ImageJ plugin. […] Caspase positive and negative cells (as identified by significant cellular CellEvent signal) were counted using the Cell Counter ImageJ plugin.

Another assay has as its system NRAS. Briefly: NRAS-GFP enrichment at the cortex of MV3 cells. The settings on record: voxels within 0.96 μm of surface. The protocol:
(§2) 3D Cell Image Analysis. Cell morphology and septin localization were analyzed principally via u-shape3D similar to the protocol described in Driscoll et al. Nature Methods. 16, 1037-1044 (2019), the disclosure of which is incorporated herein in its entirety. Briefly, 3D images were first deconvolved using either a Richardson-Lucy or Wiener algorithm with an experimentally measured point spread function. Cells were next segmented from the image background using u-shape3D's ‘twoLevel’ mode, which combines a straightforward Otsu threshold of the image to detect the outer cell surface with a blurred version of the image to segment the inside of the cell. The volume segmented from the blurred image was morphologically eroded to ensure the fidelity of the overall segmentation. Cell surfaces were then represented as triangle meshes, and the mean surface curvature at every triangle was calculated according to methods described in Driscoll et al. Nature Methods. 16, 1037-1044 (2019) and Elliott et al., Nat. […] Septin and NRAS localization was measured from fluorescence images by extending a sphere of either 1 μm (for septins) or 2 μm (for NRAS) about each mesh triangle and mapping to the triangle the average intensity both within that sphere and the cell. Image intensity was not depth normalized prior to analysis, but was instead measured from the raw, undeconvolved image. […]

For assay [1], the system named is cortical septin structures in MV3 cells. Briefly: Cortical septin localization (SEPT6-GFP) in MV3 cells. The protocol:
as §1
Cells Grown in VitroGel Coffins. VitroGel coffins were prepared by embedding MV3 or A375 cells in VitroGel 3D or RGD at 1:1 dilution according to manufacturer's instructions (TheWell Biosciences, sku #TWG001). […] A 1:1 solution of VitroGel and VitroGel Dilution Solution was made and added to cell suspension at a ratio of 4:1 (VitroGel: cells) using gentle pipetting until well-mixed (with care taken not to form bubbles). Cell/VitroGel solution was transferred to an 8-well uncoated ibidi μ-slide (ibidi cat #80821) at 100 μl/well, spread over the bottom of wells with a pipette tip, and allowed to polymerize at room temperature for 15 minutes. The remainder of the well was then filled with 10% FBS DMEM and slide was stored at 37° C. and 5% CO2 for either 24 hrs for viability assays, 3 hrs for ERK activity assays, or 1 hour for visualization of septins/PI3K activity.
3D Light-Sheet Imaging. […] All images were saved in the OME-TIFF format.
as §2, with “Cells were next segmented from the image background using u-shape3D's ‘twoLevel’ mode, which combines a straightforward Otsu threshold of the image to detect the outer cell surface with a blurred version of the image to segment the inside of the cell. The volume segmented from the blurred image was morphologically eroded to ensure the fidelity of the overall segmentation.” left out, “Methods.” for “Methods. 16, 1037-1044 (2019) and Elliott et al., Nat.”
Cortical septin levels were quantified by measuring the mean cytoplasmic intensity of each cell using hand-drawn ROIs that excluded nuclei (performed with the FIJI ImageJ package), and then calculating for each cell its fraction of cortical voxels (intracellular voxels within 0.96 μm of the u-Shape3D-derived surface) that were higher than that cell's mean cytoplasmic intensity (performed using a MATLAB script). NRAS enrichment at the surface was quantified by first calculating the total amount of intracellular signal expected to be within 0.96 μm of the surface if the cell's signal was homogenously distributed between all voxels, and then calculating the percent change between this value and the observed value for each cell. […]

Turning to `O=C(Nc1ccccc1)Nc1ccnc(Cl)c1` [FCF, forchlorfenuron], the PI3K activity result in the assay on PI3K is recorded as “PI3K activity fell significantly”. Further, the ERK signaling entry with ERK (adhered MV3, 3 hours of FCF) is given as “no difference in ERK signaling compared to controls”. Besides, the ERK activation result with ERK (detached MV3, 3 hours of FCF) was “significantly reduced”. Further, the “enrichment of NRAS near the cell surface” value with NRAS is on record as “significantly reduced enrichment of NRAS near the cell surface”. Moreover, the cortical septin structures result in assay [1] (MV3 SEPT6-GFP, FCF treatment) is reported as “near-complete ablation of cortical septin structures”.
With wheat germ agglutinin [WGA], in assay [1] (MV3, relative to control conditions), the “cortical septin levels (fraction of cortical voxels above mean cytoplasmic SEPT6-GFP intensity)” value is given as “significantly reduced cortical septin levels”. For the same compound, the “septin localization (cortical levels)” value in assay [1] (MV3 SEPT6-GFP, WGA (50 ug/ml), VitroGel, H1152 (1 μM), NSC668394 (10 μM)) was “pronounced effects on septin localization, reducing cortical levels”.
